Measured values taken from patent US11304946B2, “2-hetarylpyrimidine-4-carboxamides as aryl hydrocarbon receptor antagonists” (Bayer Aktiengesellschaft, priority 2017, dated 2022).

Columns and labels:
Mouse AhR = biological target: T1, Mouse AhR (Mus musculus, UniProt P30561); assay: Transactivation assay in mouse cell line (in vitro assay 2: antagonism); format: cell-based; conditions: Hepa 1c1c7 cells, AHR inducible (DRE) firefly luciferase reporter, 200 μM kynurenic acid, 20 hours
T1 sequence (P30561 1-848): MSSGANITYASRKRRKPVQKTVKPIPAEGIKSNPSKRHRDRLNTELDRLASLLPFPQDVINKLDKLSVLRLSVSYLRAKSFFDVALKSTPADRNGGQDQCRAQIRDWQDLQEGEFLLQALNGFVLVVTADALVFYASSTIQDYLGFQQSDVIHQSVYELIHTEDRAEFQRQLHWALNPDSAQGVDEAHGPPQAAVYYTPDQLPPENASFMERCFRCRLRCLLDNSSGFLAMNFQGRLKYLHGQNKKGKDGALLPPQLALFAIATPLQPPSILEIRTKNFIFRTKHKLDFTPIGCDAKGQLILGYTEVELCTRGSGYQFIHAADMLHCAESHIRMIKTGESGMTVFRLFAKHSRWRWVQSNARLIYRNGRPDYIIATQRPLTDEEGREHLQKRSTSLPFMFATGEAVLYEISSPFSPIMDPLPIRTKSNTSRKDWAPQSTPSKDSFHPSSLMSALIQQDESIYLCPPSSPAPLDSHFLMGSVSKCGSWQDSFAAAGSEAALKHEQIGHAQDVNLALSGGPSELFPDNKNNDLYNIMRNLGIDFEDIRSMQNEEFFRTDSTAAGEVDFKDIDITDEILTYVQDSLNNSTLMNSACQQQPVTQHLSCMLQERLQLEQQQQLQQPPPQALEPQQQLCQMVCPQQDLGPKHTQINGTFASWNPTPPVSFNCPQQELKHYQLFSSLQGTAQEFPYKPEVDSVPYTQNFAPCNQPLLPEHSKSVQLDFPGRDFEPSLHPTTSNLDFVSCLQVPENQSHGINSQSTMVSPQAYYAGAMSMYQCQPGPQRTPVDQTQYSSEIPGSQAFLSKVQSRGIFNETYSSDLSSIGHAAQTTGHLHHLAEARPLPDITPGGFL
Description: Transactivation Assay in Mouse Cell Line (In Vitro Assay 2)
(§1) Transactivation assay was carried out in Hepa 1c1c7 cells (ATCC #CRL-2026) endogenously expressing AHR. In addition the cells were stably transfected with an AHR inducible firefly luciferase reporter gene construct that carried AHR-binding sites (DRE) in its promoter. Kynurenic acid is an endogenous AHR activating ligand and was used to prestimulate test cells prior to testing the antagonistic properties of compounds.
In Vitro Assay 2: Antagonism in Mouse Cell Line
Firefly luciferase activity was determined by the SteadyGlo Luciferase Assay System (Promega, #E2550).

Human AhR = biological target: T2, Human AhR (Homo sapiens, UniProt P35869); assay: Transactivation assay in human cell line (in vitro assay 1: antagonism); format: cell-based; conditions: U87 glioblastoma cells, AHR inducible (DRE) firefly luciferase reporter, 150 μM kynurenic acid, 20 hours
T2 construct: host or cells: U87 glioblastoma cells, stably transfected with DRE-driven firefly luciferase and constitutive renilla reporter constructs
T2 sequence (P35869 11-848): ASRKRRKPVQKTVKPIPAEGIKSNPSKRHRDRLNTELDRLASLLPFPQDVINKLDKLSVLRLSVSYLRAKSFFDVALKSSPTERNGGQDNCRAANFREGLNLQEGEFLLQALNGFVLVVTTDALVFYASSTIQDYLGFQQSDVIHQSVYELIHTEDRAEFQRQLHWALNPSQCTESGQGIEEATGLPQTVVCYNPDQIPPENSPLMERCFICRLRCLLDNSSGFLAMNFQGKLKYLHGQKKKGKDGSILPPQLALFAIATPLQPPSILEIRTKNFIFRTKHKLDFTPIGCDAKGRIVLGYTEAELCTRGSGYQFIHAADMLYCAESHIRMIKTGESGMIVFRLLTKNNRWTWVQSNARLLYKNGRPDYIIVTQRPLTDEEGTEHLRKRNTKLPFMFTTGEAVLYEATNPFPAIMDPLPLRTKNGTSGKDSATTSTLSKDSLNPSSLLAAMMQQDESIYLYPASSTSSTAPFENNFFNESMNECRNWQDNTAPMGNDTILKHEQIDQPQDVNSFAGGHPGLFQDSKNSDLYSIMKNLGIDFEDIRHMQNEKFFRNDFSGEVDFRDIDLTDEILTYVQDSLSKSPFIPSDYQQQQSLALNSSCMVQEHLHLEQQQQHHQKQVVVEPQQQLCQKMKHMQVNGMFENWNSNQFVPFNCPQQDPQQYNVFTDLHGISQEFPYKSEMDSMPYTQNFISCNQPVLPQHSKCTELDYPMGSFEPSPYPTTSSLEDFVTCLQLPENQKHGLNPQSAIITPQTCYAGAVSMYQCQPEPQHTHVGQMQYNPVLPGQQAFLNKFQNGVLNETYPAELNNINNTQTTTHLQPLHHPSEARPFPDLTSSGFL
Description: Transactivation Assay in Human Cell Line (In Vitro Assay 1)
as §1, with “U87 glioblastoma” for “Hepa 1c1c7”, “(ATCC)” for “(ATCC #CRL-2026)”, “its promoter and a renilla reporter gene construct with constitutively active” for “its”
In Vitro Assay 1: Antagonism in Human Cell Line
Firefly luciferase and Renilla activity was determined by the DualGlo Luciferase Assay System (Promega, #2920). Renilla activity was used to assess toxic effects of compounds.

IC50 (Mouse AhR) [nM]	IC50 (Human AhR) [nM]	SMILES
20.3	2.88	C[C@H](CO)NC(=O)c1cc(-c2ccc(OC(F)(F)F)cc2)nc(-c2cccnc2)n1 [Example 2, N-[(2R)-1-hydroxypropan-2-yl]-2-(pyridin-3-yl)-6-[4-(trifluoromethoxy)phenyl]pyrimidine-4-carboxamide]
7400	1200	C[C@@H](CO)NC(=O)c1cc(-c2ccc(Cl)cc2)nc(-c2cnn(C3CC3)c2)n1 [Example 85, 6-(4-chlorophenyl)-2-(1-cyclopropyl-1H-pyrazol-4-yl)-N-[(2S)-1-hydroxypropan-2-yl]pyrimidine-4-carboxamide]
20.4	12.5	CC(NC(=O)c1cc(-c2ccc(OC(F)(F)F)cc2)nc(-c2cnn(C)c2)n1)C(O)CO (stereo not drawn) [Example 104, N-(3,4-dihydroxybutan-2-yl)-2-(1-methyl-1H-pyrazol-4-yl)-6-[4-(trifluoromethoxy)phenyl]pyrimidine-4-carboxamide]
3.93	5.33	Cn1cc(-c2nc(C(=O)N[C@H]3CCC[C@@H]3O)cc(-c3ccc(OC(F)(F)F)cc3)n2)cn1 (stereo in doubt) [Example 87, N-[(trans)-2-hydroxycyclopentyl]-2-(1-methyl-1H-pyrazol-4-yl)-6-[4-(trifluoromethoxy)phenyl]pyrimidine-4-carboxamide]
6.81	2.88	C[C@H](NC(=O)c1cc(-c2ccc(C(F)F)cc2)nc(-c2cccnc2)n1)C(C)(C)O [Example 119, 6-[4-(difluoromethyl)phenyl]-N-[(2S)-3-hydroxy-3-methylbutan-2-yl]-2-(pyridin-3-yl)pyrimidine-4-carboxamide]
961	317	CC(C)(O)CNC(=O)c1cc(-c2ccc(Cl)cc2)nc(-c2ccc(C#N)s2)n1 [Example 47, 6-(4-chlorophenyl)-2-(5-cyanothiophen-2-yl)-N-(2-hydroxy-2-methylpropyl)pyrimidine-4-carboxamide]
7.07	5.74	Cn1cc(-c2nc(C(=O)N[C@@H]3CC[C@H]3O)cc(-c3ccc(OC(F)(F)F)cc3)n2)cn1 (relative stereo) [Example 86, N-[(trans)-2-hydroxycyclobutyl]-2-(1-methyl-1H-pyrazol-4-yl)-6-[4-(trifluoromethoxy)phenyl]pyrimidine-4-carboxamide]
7.19	2.57	Cn1cc(-c2nc(C(=O)NCC(C)(C)O)cc(-c3ccc(C(F)(F)F)cc3)n2)cn1 [Example 8, N-(2-hydroxy-2-methylpropyl)-2-(1-methyl-1H-pyrazol-4-yl)-6-[4-(trifluoromethyl)phenyl]pyrimidine-4-carboxamide]
21.2	6.37	C[C@@H](CO)NC(=O)c1cc(-c2ccc(Cl)cc2)nc(-c2cncnc2)n1 [Example 75, 6-(4-chlorophenyl)-N-[(2S)-1-hydroxypropan-2-yl][2,5′-bipyrimidine]-4-carboxamide]
4	3.48	Cn1cc(-c2nc(C(=O)N[C@H](CO)CF)cc(-c3ccc(OC(F)(F)F)cc3)n2)cn1 [Example 95, N-[(2R)-1-fluoro-3-hydroxypropan-2-yl]-2-(1-methyl-1H-pyrazol-4-yl)-6-[4-(trifluoromethoxy)phenyl]pyrimidine-4-carboxamide]
15	7.53	Cn1cc(-c2nc(C(=O)NCC(C)(C)O)cc(-c3ccc(OC(F)(F)F)cc3)n2)cn1 [Example 6, N-(2-hydroxy-2-methylpropyl)-2-(1-methyl-1H-pyrazol-4-yl)-6-[4-(trifluoromethoxy)phenyl]pyrimidine-4-carboxamide]
1420	64.7	Cc1ccc(-c2nc(C(=O)NCC(C)(C)O)cc(-c3ccc(Cl)cc3)n2)cn1 [Example 60, 6-(4-chlorophenyl)-N-(2-hydroxy-2-methylpropyl)-2-(6-methylpyridin-3-yl)pyrimidine-4-carboxamide]
